Results as given in patent US11053204B2, “Pyrimidinyloxy benzene derivatives as herbicides” (FMC Corporation, priority 2015, dated 2021).

Legend:
Format in all cases: in vivo
[1] = tested on: Italian ryegrass (Lolium multiflorum); assay: Test A preemergence, visual injury rating; details: for Plant response rating, Ryegrass, Italian: 31 g ai/ha, 0 to 100 scale, 0 no effect, 100 complete control; for Ryegrass, Italian plant response rating: 0 to 100 scale (0 no effect, 100 complete control)
In short: (§1)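 Visual injury scored 0–100 (100 = complete control) against untreated controls about 10 days after treatment in a greenhouse. Test chemicals, formulated with surfactant in non-phytotoxic solvent, were sprayed on soil preemergence or on 2-10 cm, one- to two-leaf plants postemergence.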

[2] = tested on: barnyardgrass (Echinochloa crus-galli); assay: Test A preemergence, visual injury rating; details: for Plant response rating, Barnyardgrass: 31 g ai/ha, 0 to 100 scale, 0 no effect, 100 complete control; for Barnyardgrass plant response rating: 0 to 100 scale (0 no effect, 100 complete control)
In short: as §1

kochia (Kochia scoparia) [3] = assay: Test A preemergence, visual injury rating; details: for Plant response rating, Kochia: 31 g ai/ha, 0 to 100 scale, 0 no effect, 100 complete control; for Kochia plant response rating: 0 to 100 scale (0 no effect, 100 complete control)
In short: as §1

[4] = tested on: pigweed (Amaranthus retroflexus); assay: Test A preemergence, visual injury rating; details: for Plant response rating, Pigweed: 31 g ai/ha, 0 to 100 scale, 0 no effect, 100 complete control; for Pigweed plant response rating: 0 to 100 scale (0 no effect, 100 complete control)
In short: as §1

[5] = tested on: ragweed (common ragweed, Ambrosia elatior); assay: Test A preemergence, visual injury rating; details: for Plant response rating, Ragweed: 31 g ai/ha, 0 to 100 scale, 0 no effect, 100 complete control; for Ragweed plant response rating: 0 to 100 scale (0 no effect, 100 complete control)
In short: as §1

[6] = tested on: giant foxtail (Setaria faberii); assay: Test A preemergence, visual injury rating; details: for Plant response rating, Foxtail, Giant: 31 g ai/ha, 0 to 100 scale, 0 no effect, 100 complete control; for Foxtail, Giant plant response rating: 0 to 100 scale (0 no effect, 100 complete control)
In short: as §1

[7] = tested on: Italian ryegrass (Lolium multiflorum); assay: Test A postemergence, visual injury rating; details: 0 is no effect, 100 is complete control; for Ryegrass, Italian plant response rating: 0 to 100 scale, approximately 10 days
In short: as §1

[8] = tested on: barnyardgrass (Echinochloa crus-galli); assay: Test A postemergence, visual injury rating; details: 0 is no effect, 100 is complete control; for Barnyardgrass plant response rating: 0 to 100 scale, approximately 10 days
In short: as §1

kochia (Kochia scoparia) [9] = assay: Test A postemergence, visual injury rating; details: 0 is no effect, 100 is complete control; for Kochia plant response rating: 0 to 100 scale, approximately 10 days
In short: as §1

[10] = tested on: pigweed (Amaranthus retroflexus); assay: Test A postemergence, visual injury rating; details: 0 is no effect, 100 is complete control; for Pigweed plant response rating: 0 to 100 scale, approximately 10 days
In short: as §1

[11] = tested on: ragweed (common ragweed, Ambrosia elatior); assay: Test A postemergence, visual injury rating; details: 0 is no effect, 100 is complete control; for Ragweed plant response rating: 0 to 100 scale, approximately 10 days
In short: as §1

[12] = tested on: giant foxtail (Setaria faberii); assay: Test A postemergence, visual injury rating; details: 0 is no effect, 100 is complete control; for Foxtail, Giant plant response rating: 0 to 100 scale, approximately 10 days
In short: as §1

[13] = tested on: galium (catchweed bedstraw, Galium aparine); assay: Test A postemergence, visual injury rating; details: 0 is no effect, 100 is complete control; for Galium plant response rating: 0 to 100 scale, approximately 10 days
In short: as §1

corn (Zea mays) = assay: Test A postemergence, visual injury rating; details: 0 is no effect, 100 is complete control; for Corn plant response rating: 0 to 100 scale, approximately 10 days
In short: as §1

[14] = tested on: wheat (Triticum aestivum); assay: Test A postemergence, visual injury rating; details: 0 is no effect, 100 is complete control; for Wheat plant response rating: 0 to 100 scale, approximately 10 days
In short: as §1

[15] = tested on: blackgrass (Alopecurus myosuroides); assay: Test A postemergence, visual injury rating; details: 0 is no effect, 100 is complete control; for Blackgrass plant response rating: 0 to 100 scale, approximately 10 days
In short: as §1

[16] = tested on: barnyardgrass (Echinochloa crus-galli); assay: Test B flooded paddy test, plant response rating; details: 250 g ai/ha; Flood; scale of 0 to 100 where 0 is no effect and 100 is complete control; 13 to 15 days
In short: (§2)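 Flooded 3 cm over soil; compound into paddy water; depth kept constant. Greenhouse 13–15 d.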

rice (Oryza sativa) = assay: Test B flooded paddy test, plant response rating; details: 250 g ai/ha; Flood; scale of 0 to 100 where 0 is no effect and 100 is complete control; 13 to 15 days
In short: as §2

[17] = tested on: ducksalad (Heteranthera limosa); assay: Test B flooded paddy test, plant response rating; details: 250 g ai/ha; Flood; scale of 0 to 100 where 0 is no effect and 100 is complete control; 13 to 15 days
In short: as §2

[18] = tested on: sedge, umbrella (small-flower umbrella sedge, Cyperus difformis); assay: Test B flooded paddy test, plant response rating; details: 250 g ai/ha; Flood; scale of 0 to 100 where 0 is no effect and 100 is complete control; 13 to 15 days
In short: as §2

Row | SMILES | Ryegrass, Italian plant response rating ([1]; 125 g ai/ha) | Barnyardgrass plant response rating ([2]; 125 g ai/ha) | Kochia plant response rating (kochia (Kochia scoparia) [3]; 125 g ai/ha) | Pigweed plant response rating ([4]; 125 g ai/ha) | Ragweed plant response rating ([5]; 125 g ai/ha) | Foxtail, Giant plant response rating ([6]; 125 g ai/ha) | Ryegrass, Italian plant response rating ([7]; 125 g ai/ha) | Barnyardgrass plant response rating ([8]; 125 g ai/ha) | Kochia plant response rating (kochia (Kochia scoparia) [9]; 125 g ai/ha) | Pigweed plant response rating ([10]; 125 g ai/ha) | Ragweed plant response rating ([11]; 125 g ai/ha) | Foxtail, Giant plant response rating ([12]; 125 g ai/ha) | Galium plant response rating ([13]; 125 g ai/ha) | Corn plant response rating (corn (Zea mays); 125 g ai/ha) | Wheat plant response rating ([14]; 125 g ai/ha) | Blackgrass plant response rating ([15]; 125 g ai/ha) | Plant response rating, Barnyardgrass [16] | Plant response rating, Rice (rice (Oryza sativa)) | Plant response rating, Ducksalad [17] | Plant response rating, Sedge, Umbrella [18] | further results
1 | C=C(C)CCOC(=O)c1c(Br)cccc1Oc1ncc(Cl)cn1 [Compound 90] | 0 | 40 | 0 | 0 | 0 | 70 | 0 | 30 | 50 | 50 | 0 | 60 | 20 | 10 | 0 | 0 | 0 | 0 | 30 | 60 | Plant response rating, Ryegrass, Italian [1]: 0; Plant response rating, Barnyardgrass [2]: 0; Plant response rating, Kochia (kochia (Kochia scoparia) [3]): 0; Plant response rating, Pigweed [4]: 0; Plant response rating, Ragweed [5]: 0; Plant response rating, Foxtail, Giant [6]: 10; Ryegrass, Italian plant response rating ([7]; 31 g ai/ha): 0; Barnyardgrass plant response rating ([8]; 31 g ai/ha): 0; Kochia plant response rating (kochia (Kochia scoparia) [9]; 31 g ai/ha): 30; Pigweed plant response rating ([10]; 31 g ai/ha): 10; Ragweed plant response rating ([11]; 31 g ai/ha): 0; Foxtail, Giant plant response rating ([12]; 31 g ai/ha): 10; Galium plant response rating ([13]; 31 g ai/ha): 0; Corn plant response rating (corn (Zea mays); 31 g ai/ha): 0; Wheat plant response rating ([14]; 31 g ai/ha): 0; Blackgrass plant response rating ([15]; 31 g ai/ha): 0
2 | C=CCSC(=O)c1c(Br)cccc1Oc1ncc(Cl)cn1 [Compound 91] | 0 | 90 | 20 | 40 | 0 | 70 | 0 | 30 | 60 | 100 | 0 | 30 | 70 | 20 | 20 | 20 | 0 | 20 | 100 | 95 | Ryegrass, Italian plant response rating ([1]; 500 g ai/ha): 80; Barnyardgrass plant response rating ([2]; 500 g ai/ha): 100; Kochia plant response rating (kochia (Kochia scoparia) [3]; 500 g ai/ha): 100; Pigweed plant response rating ([4]; 500 g ai/ha): 100; Ragweed plant response rating ([5]; 500 g ai/ha): 0; Foxtail, Giant plant response rating ([6]; 500 g ai/ha): 100; Ryegrass, Italian plant response rating (0 to 100 scale) ([7]; 500 g ai/ha): 30; Barnyardgrass plant response rating (0 to 100 scale) ([8]; 500 g ai/ha): 100; Kochia plant response rating (0 to 100 scale) (kochia (Kochia scoparia) [9]; 500 g ai/ha): 100; Pigweed plant response rating (0 to 100 scale) ([10]; 500 g ai/ha): 100; Ragweed plant response rating (0 to 100 scale) ([11]; 500 g ai/ha): 20; Foxtail, Giant plant response rating (0 to 100 scale) ([12]; 500 g ai/ha): 100; Galium plant response rating (0 to 100 scale) ([13]; 500 g ai/ha): 90; Corn plant response rating (0 to 100 scale) (corn (Zea mays); 500 g ai/ha): 50; Wheat plant response rating (0 to 100 scale) ([14]; 500 g ai/ha): 30; Blackgrass plant response rating (0 to 100 scale) ([15]; 500 g ai/ha): 30
3 | O=C(NCCC(F)(F)F)c1c(Br)cccc1Oc1ncc(Cl)cn1 [Compound 93] | 0 | 0 | 0 | 0 | 0 | 0 | 0 | 0 | 0 | 0 | 0 | 0 | 0 | 0 | 0 | 0 | 0 | 0 | 0 | 0 | Plant response rating, Ryegrass, Italian [1]: 0; Plant response rating, Barnyardgrass [2]: 0; Plant response rating, Kochia (kochia (Kochia scoparia) [3]): 0; Plant response rating, Pigweed [4]: 0; Plant response rating, Ragweed [5]: 0; Plant response rating, Foxtail, Giant [6]: 0; Ryegrass, Italian plant response rating ([7]; 31 g ai/ha): 0; Barnyardgrass plant response rating ([8]; 31 g ai/ha): 0; Kochia plant response rating (kochia (Kochia scoparia) [9]; 31 g ai/ha): 0; Pigweed plant response rating ([10]; 31 g ai/ha): 0; Ragweed plant response rating ([11]; 31 g ai/ha): 0; Foxtail, Giant plant response rating ([12]; 31 g ai/ha): 0; Galium plant response rating ([13]; 31 g ai/ha): 0; Corn plant response rating (corn (Zea mays); 31 g ai/ha): 0; Wheat plant response rating ([14]; 31 g ai/ha): 0; Blackgrass plant response rating ([15]; 31 g ai/ha): 0
4 | O=C(OCCC(F)(F)F)c1cc(Br)ccc1Oc1ncc(Cl)cn1 [Compound 94] | 0 | 0 | 0 | 0 | 0 | 0 | 0 | 0 | 0 | 0 | 0 | 0 | 0 | 0 | 0 | 0 | 0 | 0 | 0 | 0 | Plant response rating, Ryegrass, Italian [1]: 0; Plant response rating, Barnyardgrass [2]: 0; Plant response rating, Kochia (kochia (Kochia scoparia) [3]): 0; Plant response rating, Pigweed [4]: 0; Plant response rating, Ragweed [5]: 0; Plant response rating, Foxtail, Giant [6]: 0; Ryegrass, Italian plant response rating ([7]; 31 g ai/ha): 0; Barnyardgrass plant response rating ([8]; 31 g ai/ha): 0; Kochia plant response rating (kochia (Kochia scoparia) [9]; 31 g ai/ha): 0; Pigweed plant response rating ([10]; 31 g ai/ha): 0; Ragweed plant response rating ([11]; 31 g ai/ha): 0; Foxtail, Giant plant response rating ([12]; 31 g ai/ha): 0; Galium plant response rating ([13]; 31 g ai/ha): 0; Corn plant response rating (corn (Zea mays); 31 g ai/ha): 0; Wheat plant response rating ([14]; 31 g ai/ha): 0; Blackgrass plant response rating ([15]; 31 g ai/ha): 0
